Results taken from ChEMBL document CHEMBL1201862, “PubChem BioAssay data set” (2004).
The source made the active and inactive calls.

Columns and labels:
[1] = target: Mitogen-activated protein kinase 10 (Homo sapiens, UniProt P53779); assay: Dose response biochemical screening assay for inhibitors of c-Jun N-Terminal Kinase 3 (JNK3). [Related pubchem assays: 746 ]
Large T antigen = Large T antigen (Simian virus 40, UniProt P03070); assay type: functional, Betapolyomavirus macacae;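 further: Confirmatory-stage PubChem screen for compounds that inhibit SV40 T antigen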
Sequence of Large T antigen (P03070 whole entry): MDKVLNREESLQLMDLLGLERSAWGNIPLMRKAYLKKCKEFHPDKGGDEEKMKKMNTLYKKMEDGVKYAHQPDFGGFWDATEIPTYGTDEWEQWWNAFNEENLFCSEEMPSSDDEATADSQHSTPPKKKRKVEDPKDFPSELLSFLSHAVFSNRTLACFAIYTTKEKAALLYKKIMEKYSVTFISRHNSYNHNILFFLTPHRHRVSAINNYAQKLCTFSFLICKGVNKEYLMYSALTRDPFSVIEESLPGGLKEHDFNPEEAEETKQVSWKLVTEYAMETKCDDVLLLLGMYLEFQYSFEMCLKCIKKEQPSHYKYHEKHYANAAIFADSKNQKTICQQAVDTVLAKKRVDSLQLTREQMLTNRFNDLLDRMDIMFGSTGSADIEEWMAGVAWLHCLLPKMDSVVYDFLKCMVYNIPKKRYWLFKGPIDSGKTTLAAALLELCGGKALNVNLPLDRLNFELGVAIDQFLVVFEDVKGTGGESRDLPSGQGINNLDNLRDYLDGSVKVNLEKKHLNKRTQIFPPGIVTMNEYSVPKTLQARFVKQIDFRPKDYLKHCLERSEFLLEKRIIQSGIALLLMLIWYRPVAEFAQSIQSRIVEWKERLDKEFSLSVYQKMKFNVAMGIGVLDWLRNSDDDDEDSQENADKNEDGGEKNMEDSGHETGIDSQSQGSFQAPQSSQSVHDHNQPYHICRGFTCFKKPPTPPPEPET

[2] = IC50 of insulin release inhibition, rat insulinoma INS-1E line, 5 mM glucose, cell-based (AID 1117331); assay type: functional
[3] = glucagon-like peptide-1 release potency in STC-1, concentration-response, half-maximal inhibitory concentration in the STC-1 line (AID 1117345); assay type: functional, cell-based
[4] = Potency on glucagon-like peptide 1 release, dose-response in NCI-H716 cell line, half maximal inhibitory concentration (AID 1117344); assay type: functional, cell-based
[5] = target: T1, Mannose-6-phosphate isomerase (Homo sapiens, UniProt P34949); assay: MPI inhibition at elevated mannose 6-phosphate – biochemical, fluorescence intensity, high mannose 6-phosphate, primary screen (AID 1220)
T1 sequence (P34949 whole entry): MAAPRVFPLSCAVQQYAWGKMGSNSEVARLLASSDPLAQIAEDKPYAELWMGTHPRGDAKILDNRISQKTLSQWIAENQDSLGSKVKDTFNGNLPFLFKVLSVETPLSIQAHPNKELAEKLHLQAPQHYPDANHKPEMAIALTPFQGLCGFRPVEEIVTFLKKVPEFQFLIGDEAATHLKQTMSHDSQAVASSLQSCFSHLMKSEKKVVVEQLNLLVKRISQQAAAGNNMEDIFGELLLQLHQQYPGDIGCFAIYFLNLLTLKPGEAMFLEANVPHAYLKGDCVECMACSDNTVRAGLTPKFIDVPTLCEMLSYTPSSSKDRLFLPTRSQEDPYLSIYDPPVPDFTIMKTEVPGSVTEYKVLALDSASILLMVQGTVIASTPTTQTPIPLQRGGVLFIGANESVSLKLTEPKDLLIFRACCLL

D(3) dopamine receptor = D(3) dopamine receptor (Homo sapiens, UniProt P35462); assay: Counterscreening of D4 Antagonists against Dopamine 3 DRD3 (Human), Confirmatory Assay.; assay type: functional
Sequence of D(3) dopamine receptor (P35462 whole entry): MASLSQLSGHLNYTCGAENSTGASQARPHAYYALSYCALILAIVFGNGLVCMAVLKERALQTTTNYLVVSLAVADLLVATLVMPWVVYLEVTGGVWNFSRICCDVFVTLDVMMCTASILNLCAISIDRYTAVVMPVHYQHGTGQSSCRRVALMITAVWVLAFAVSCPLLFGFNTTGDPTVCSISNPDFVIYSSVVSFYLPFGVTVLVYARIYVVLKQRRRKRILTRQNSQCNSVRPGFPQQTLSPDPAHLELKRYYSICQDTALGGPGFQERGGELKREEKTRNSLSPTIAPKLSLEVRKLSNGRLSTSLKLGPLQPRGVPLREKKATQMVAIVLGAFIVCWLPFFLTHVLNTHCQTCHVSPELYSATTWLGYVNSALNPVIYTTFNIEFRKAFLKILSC

D(1A) dopamine receptor = D(1A) dopamine receptor (Homo sapiens, UniProt P21728); assay: Counterscreening of D4 Antagonists against Dopamine 1 (Human), Confirmatory Assay.; assay type: functional
Sequence of D(1A) dopamine receptor (P21728 whole entry): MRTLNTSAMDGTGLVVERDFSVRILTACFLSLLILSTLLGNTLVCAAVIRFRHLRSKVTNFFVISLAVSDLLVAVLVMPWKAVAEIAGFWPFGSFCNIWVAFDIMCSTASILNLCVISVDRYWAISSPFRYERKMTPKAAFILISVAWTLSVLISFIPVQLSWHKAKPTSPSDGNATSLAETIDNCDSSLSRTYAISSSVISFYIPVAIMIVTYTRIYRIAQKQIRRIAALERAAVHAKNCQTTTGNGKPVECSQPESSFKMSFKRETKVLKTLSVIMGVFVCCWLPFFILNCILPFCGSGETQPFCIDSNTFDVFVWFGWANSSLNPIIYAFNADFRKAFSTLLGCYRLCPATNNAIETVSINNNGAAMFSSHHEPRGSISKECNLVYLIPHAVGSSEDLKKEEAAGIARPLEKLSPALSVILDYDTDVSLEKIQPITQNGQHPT

D(1B) dopamine receptor = D(1B) dopamine receptor (Homo sapiens, UniProt P21918); assay: Counterscreening of D4 Antagonists against Dopamine 5 DRD5 (Human), Confirmatory Assay.; assay type: functional
Sequence of D(1B) dopamine receptor (P21918 whole entry): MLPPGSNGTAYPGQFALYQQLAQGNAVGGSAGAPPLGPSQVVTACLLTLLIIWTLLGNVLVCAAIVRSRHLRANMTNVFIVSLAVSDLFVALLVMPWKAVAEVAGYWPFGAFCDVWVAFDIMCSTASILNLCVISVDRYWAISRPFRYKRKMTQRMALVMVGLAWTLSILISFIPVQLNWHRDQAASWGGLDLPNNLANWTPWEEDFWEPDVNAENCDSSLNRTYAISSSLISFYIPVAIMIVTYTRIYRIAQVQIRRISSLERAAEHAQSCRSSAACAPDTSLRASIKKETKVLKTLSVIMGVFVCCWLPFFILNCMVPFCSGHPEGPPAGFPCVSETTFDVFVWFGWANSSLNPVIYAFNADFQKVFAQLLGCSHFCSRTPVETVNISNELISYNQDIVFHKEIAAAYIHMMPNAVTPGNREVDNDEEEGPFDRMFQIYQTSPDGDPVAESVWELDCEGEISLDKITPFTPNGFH

D(2) dopamine receptor = D(2) dopamine receptor (Homo sapiens, UniProt P14416); assay: Counterscreening of D4 Antagonists against Dopamine 2S (Human), Confirmatory Assay.; assay type: functional
Sequence of D(2) dopamine receptor (P14416 whole entry): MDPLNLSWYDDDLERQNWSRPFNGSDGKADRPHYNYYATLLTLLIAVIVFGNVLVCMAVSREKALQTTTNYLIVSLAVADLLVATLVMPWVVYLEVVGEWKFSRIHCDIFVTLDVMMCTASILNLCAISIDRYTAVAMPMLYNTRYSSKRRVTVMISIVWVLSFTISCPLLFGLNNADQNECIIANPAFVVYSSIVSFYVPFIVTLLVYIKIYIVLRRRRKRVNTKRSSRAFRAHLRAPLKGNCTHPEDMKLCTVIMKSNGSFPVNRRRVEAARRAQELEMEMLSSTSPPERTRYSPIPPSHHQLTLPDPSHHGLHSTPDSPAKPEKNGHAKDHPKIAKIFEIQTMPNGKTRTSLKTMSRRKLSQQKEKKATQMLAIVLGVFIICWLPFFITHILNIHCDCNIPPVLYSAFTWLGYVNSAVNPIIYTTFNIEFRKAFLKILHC

[6] = M. tuberculosis H37Rv growth inhibitors, H37Rv strain (AID 1626); assay type: functional
[7] = target: Peroxisome proliferator-activated receptor gamma/Nuclear receptor corepressor 2 (Homo sapiens, UniProt P37231+Q9Y618); assay: Counterscreen for NR2E3 inverse agonists: TR-FRET-based biochemical high throughput dose response assay to identify inverse agonists of the interaction between peroxisome proliferator-activated receptor gamma (PPARg) and nuclear receptor co-repressor 2 (NCOR2).; assay type: functional
[8] = target: Photoreceptor-specific nuclear receptor (Homo sapiens, UniProt Q9Y5X4); assay: ligands suppressing NR2E3 nuclear receptor activity – biochemical, TR-FRET, dose response (AID 463256); assay type: functional
Sequence of Photoreceptor-specific nuclear receptor (Q9Y5X4 whole entry): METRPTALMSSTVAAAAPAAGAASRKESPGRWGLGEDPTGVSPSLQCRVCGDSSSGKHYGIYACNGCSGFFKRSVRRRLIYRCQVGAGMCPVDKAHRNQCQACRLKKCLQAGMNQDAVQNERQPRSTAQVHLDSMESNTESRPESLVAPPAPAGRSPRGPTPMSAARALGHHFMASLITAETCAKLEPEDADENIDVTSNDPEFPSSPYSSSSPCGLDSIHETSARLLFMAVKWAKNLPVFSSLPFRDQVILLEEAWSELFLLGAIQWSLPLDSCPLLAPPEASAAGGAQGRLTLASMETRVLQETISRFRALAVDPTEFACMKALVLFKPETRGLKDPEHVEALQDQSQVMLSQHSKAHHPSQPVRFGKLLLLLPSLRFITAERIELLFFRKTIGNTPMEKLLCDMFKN

[9] = target: ADP-ribosylation factor GTPase-activating protein 1 (Rattus norvegicus, UniProt Q62848); assay: Fluorescence polarization-based biochemical high throughput dose response screening assay to identify inhibitors of ADP-ribosylation factor GTPase activating protein 1 (ARFGAP1).; assay type: functional
Sequence of ADP-ribosylation factor GTPase-activating protein 1 (Q62848 whole entry): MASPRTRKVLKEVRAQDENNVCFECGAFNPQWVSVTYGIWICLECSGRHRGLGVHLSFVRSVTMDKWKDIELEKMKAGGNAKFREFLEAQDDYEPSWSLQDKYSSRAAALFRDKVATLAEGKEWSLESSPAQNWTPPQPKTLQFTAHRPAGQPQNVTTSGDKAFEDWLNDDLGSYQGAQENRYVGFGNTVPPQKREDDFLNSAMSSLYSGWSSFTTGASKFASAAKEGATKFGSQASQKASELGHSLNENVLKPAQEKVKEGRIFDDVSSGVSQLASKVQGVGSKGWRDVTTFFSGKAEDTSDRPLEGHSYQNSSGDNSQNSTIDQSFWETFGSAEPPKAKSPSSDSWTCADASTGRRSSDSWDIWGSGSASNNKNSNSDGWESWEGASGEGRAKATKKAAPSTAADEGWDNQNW

NADPH oxidase 1 = NADPH oxidase 1 (Homo sapiens, UniProt Q9Y5S8); assay type: functional, cell-based;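 further: Cell-based assay with luminescence read-out, IC50 derived from inhibitor dose-response curves; intracellular ROS from endogenous NOX1 in intact HT29 colon cancer cells; potency of inhibitors that lower the ROS luminescence signal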
Sequence of NADPH oxidase 1 (Q9Y5S8 whole entry): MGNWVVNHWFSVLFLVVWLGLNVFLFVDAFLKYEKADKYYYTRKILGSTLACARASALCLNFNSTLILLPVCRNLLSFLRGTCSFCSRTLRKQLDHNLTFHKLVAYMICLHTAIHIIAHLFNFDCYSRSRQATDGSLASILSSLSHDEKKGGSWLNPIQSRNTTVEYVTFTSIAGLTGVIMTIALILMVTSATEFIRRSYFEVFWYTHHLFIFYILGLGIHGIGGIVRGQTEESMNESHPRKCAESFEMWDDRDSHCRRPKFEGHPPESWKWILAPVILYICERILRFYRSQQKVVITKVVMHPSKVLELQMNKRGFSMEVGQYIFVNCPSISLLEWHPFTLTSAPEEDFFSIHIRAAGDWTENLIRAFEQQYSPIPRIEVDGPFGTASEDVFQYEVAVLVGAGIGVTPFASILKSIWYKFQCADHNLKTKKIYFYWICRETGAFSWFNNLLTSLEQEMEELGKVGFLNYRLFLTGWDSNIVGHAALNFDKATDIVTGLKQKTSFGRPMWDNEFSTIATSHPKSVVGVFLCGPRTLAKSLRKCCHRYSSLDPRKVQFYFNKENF

Sequence of Mitogen-activated protein kinase 10 (P53779 whole entry): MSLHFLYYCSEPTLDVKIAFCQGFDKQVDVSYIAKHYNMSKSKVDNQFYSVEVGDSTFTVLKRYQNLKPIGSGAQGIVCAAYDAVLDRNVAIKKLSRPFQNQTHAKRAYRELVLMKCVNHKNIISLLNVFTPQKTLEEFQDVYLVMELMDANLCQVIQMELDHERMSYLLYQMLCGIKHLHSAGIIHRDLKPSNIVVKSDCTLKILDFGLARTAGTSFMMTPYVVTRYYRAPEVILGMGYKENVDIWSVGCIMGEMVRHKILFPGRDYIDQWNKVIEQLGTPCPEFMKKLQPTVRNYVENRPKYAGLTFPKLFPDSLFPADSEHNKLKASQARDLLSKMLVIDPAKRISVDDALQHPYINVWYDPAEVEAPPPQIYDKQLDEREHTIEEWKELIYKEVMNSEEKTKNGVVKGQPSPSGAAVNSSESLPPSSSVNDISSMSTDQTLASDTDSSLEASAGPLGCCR

N#Cc1c(N)nc2c(c1-c1ccco1)CCCCC2
IC50 [1]: > 93.1 µM (not active)

Oc1ccc(O)cc1 [HYDROQUINONE]
IC50 (Large T antigen): 7.76 µM (active)
IC50 [2]: > 33.3 µM (inactive)
IC50 [3]: 1.01 µM (active)
IC50 [4]: > 40 µM (inactive)

C=CCn1c(SCC(=O)N2N=C(c3ccco3)CC2c2ccco2)nnc1-c1ccncc1 (stereo not given)
IC50 [5]: > 50 µM (not active)

Clc1ccc(CN2CCO[C@H](CCc3ccccc3)C2)cc1
IC50 (D(3) dopamine receptor): 20 µM (inactive)
IC50 (D(1A) dopamine receptor): 20 µM (inactive)
IC50 (D(1B) dopamine receptor): 20 µM (inactive)
IC50 (D(2) dopamine receptor): 20 µM (inactive)

O=C(Oc1ccc2ccc(O)cc2c1)C1CCCCC1
IC50 [6]: > 100 µM (active)

Cc1c(C(=O)Nc2ccc(-n3cnnn3)cc2)oc2ccccc12
IC50 [7]: 7.48 µM (active)
IC50 [8]: 8.46 µM (active)
IC50 [9]: 78.5 µM (inactive)

O=C(Oc1ccccc1[N+](=O)[O-])c1sc2ccccc2c1Cl
IC50 (NADPH oxidase 1): > 17 µM (not active)
